# Reference: patent US20110021565A1, “PIPERIDINE DERIVATIVES AS NK3 ANTAGONISTS” (priority 2007, published 2011)
# Like-named read-outs stand apart in the source and are kept apart here.
# Target: T1, recombinant human NK3 receptor (Homo sapiens, UniProt P29371)
# T1 construct: expressed in transfected cells; host or cells: HEK293 cells, transient expression; membrane preparation
# T1 sequence (P29371 1-465): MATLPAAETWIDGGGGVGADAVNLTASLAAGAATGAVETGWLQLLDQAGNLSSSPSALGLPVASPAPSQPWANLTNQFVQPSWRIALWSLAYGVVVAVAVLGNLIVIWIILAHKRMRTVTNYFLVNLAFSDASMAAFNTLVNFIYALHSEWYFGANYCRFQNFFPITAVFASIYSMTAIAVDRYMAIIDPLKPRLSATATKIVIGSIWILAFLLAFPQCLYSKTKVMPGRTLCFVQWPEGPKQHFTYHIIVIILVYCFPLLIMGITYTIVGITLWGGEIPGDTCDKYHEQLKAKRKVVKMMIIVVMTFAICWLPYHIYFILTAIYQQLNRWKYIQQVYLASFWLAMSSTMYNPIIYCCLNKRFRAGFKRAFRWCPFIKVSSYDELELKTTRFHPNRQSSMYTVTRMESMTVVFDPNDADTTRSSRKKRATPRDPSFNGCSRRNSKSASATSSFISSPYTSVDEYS
# Experiment: [3H]SR142801 competition binding assay
# Summary of the method: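 Membranes from HEK293 cells transiently expressing the receptor (5 μg protein/well) incubated 75 min at RT with [3H]SR142801 at its KD and 10 compound concentrations (0.0003-10 μM), in pH 7.4 Tris buffer with MnCl2, phosphoramidon and BSA. Nonspecific binding defined with 10 μM SB222200; bound radioactivity counted after filtration. Ki from IC50 via Cheng-Prusoff; duplicates.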
# [1] = [3H]SR142801, membranes of HEK293 cells transiently expressing recombinant human NK3 receptor, read-out: hNK3 Ki
# [2] = representative compounds, [3H]SR142801, HEK293 membranes, human NK3 receptor, read-out: Ki NK3 h
SMILES,Ki [1] [nM],Ki [2] [nM]
"CC[C@H](NC(=O)C(C)(CCN1CCC(NC(C)=O)CC1)c1ccc(Cl)c(Cl)c1)c1ccccc1 (stereo partly drawn) [Example 161, 4-(4-Acetylamino-piperidin-1-yl)-2-(3,4-dichloro-phenyl)-2-methyl-N-((S)-1-phenyl-propyl)-butyramide]",44.2,
"CC(NC(=O)C(C)(CCN1CCC(NS(C)(=O)=O)CC1)c1ccc(Cl)c(Cl)c1)c1ccc(Cl)c(Cl)c1 (stereo not shown) [Example 19, 2-(3,4-Dichloro-phenyl)-N-[1-(3,4-dichloro-phenyl)-ethyl]-4-(4-methanesulfonyl-amino-piperidin-1-yl)-2-methyl-butyramide]",59.9,
"CN(Cc1ccc(C(F)(F)F)nc1)C(=O)C(C)(CCN1CCC(NS(C)(=O)=O)CC1)c1ccc(Cl)c(Cl)c1 (stereo not shown) [Example 31, 2-(3,4-Dichloro-phenyl)-4-(4-methanesulfonyl-amino-piperidin-1-yl)-2,N-dimethyl-N-(6-trifluoromethyl-pyridin-3-ylmethyl)-butyramide]",500,
"COc1ccc(C(NC(=O)C(C)(CCN2CCC(NS(C)(=O)=O)CC2)c2ccc(Cl)c(Cl)c2)C2CC2)cc1 (stereo not shown) [Example 2, N-[Cyclopropyl-(4-methoxy-phenyl)-methyl]-2-(3,4-dichloro-phenyl)-4-(4-methanesulfonyl-amino-piperidin-1-yl)-2-methyl-butyramide]",703,
"CN(Cc1ccc(Cl)cc1)C(=O)C(CCN1CCC(NS(C)(=O)=O)CC1)c1ccc(Cl)c(Cl)c1 (stereo not shown) [Example 37, N-(4-Chloro-benzyl)-2-(3,4-dichloro-phenyl)-4-(4-methanesulfonyl-amino-piperidin-1-yl)-N-methyl-butyramide]",78.7,
"CC(CCN1CCC(NS(C)(=O)=O)CC1)(C(=O)NCc1ccc(C#N)cc1)c1ccc(Cl)c(Cl)c1 (stereo not shown) [Example 27, N-(4-Cyano-benzyl)-2-(3,4-dichloro-phenyl)-4-(4-methanesulfonyl-amino-piperidin-1-yl)-2-methyl-butyramide]",263,
"CC(=O)N(C)C1CCN(CCC(C)(C(=O)NC(C)c2ccc(F)c(C(F)(F)F)c2)c2ccc(Cl)c(Cl)c2)CC1 (stereo not shown) [Example 132, 4-[4-(Acetyl-methyl-amino)-piperidin-1-yl]-2-(3,4-dichloro-phenyl)-N-[1-(4-fluoro-3-trifluoromethyl-phenyl)-ethyl]-2-methyl-butyramide]",46.2,
"CN(Cc1ccc(C(F)(F)F)cc1)C(=O)C(CCN1CCC(NS(C)(=O)=O)CC1)c1ccc(Cl)c(Cl)c1 (stereo not shown) [Example 33, 2-(3,4-Dichloro-phenyl)-4-(4-methanesulfonyl-amino-piperidin-1-yl)-N-methyl-N-(4-trifluoromethyl-benzyl)-butyramide]",81.6,
"CC(=O)NC1CCN(CCC(C)(C(=O)N[C@@H](CO)c2ccc(Cl)c(Cl)c2)c2ccc(Cl)c(Cl)c2)CC1 (single isomer, unassigned; diastereoisomer 1) [Example 158]",34.6,
"CC(CCN1CCC(N2CCCC2=O)CC1)(C(=O)N[C@H](CO)c1ccc(Cl)c(Cl)c1)c1ccc(Cl)c(Cl)c1 (single isomer, unassigned; diastereoisomer 2) [Example 98, 2-(3,4-Dichloro-phenyl)-N-[1-(3,4-dichloro-phenyl)-2-hydroxy-ethyl]-2-methyl-4-[4-(2-oxo-pyrrolidin-1-yl)-piperidin-1-yl]-butyramide; diastereoisomer 2]",49.9,
"CC(=O)N(C)C1CCN(CCC(C)(C(=O)N[C@H](CO)c2ccc(Cl)c(Cl)c2)c2ccc(Cl)c(Cl)c2)CC1 (single isomer, unassigned; diastereoisomer 2) [Example 110, 4-[4-(Acetyl-methyl-amino)-piperidin-1-yl]-2-(3,4-dichloro-phenyl)-N-[1-(3,4-dichloro-phenyl)-2-hydroxy-ethyl]-2-methyl-butyramide; diastereoisomer 2]",110,
"CC(CCN1CCC(N2CCCC2=O)CC1)(C(=O)NC1(c2ccccc2)CC1)c1ccc(Cl)c(Cl)c1 (stereo not shown) [Example 93, 2-(3,4-Dichlorophenyl)-2-methyl-4-[4-(2-oxo-pyrrolidin-1-yl)-piperidin-1-yl]-N-(1-phenyl-cyclopropyl)-butyramide]",184,
"CC(=O)NC1CCN(CCC(C)(C(=O)N[C@@H](CO)c2ccc(F)cc2)c2ccc(Cl)c(Cl)c2)CC1 (stereo partly drawn) [Example 160, 4-(4-Acetylamino-piperidin-1-yl)-2-(3,4-dichloro-phenyl)-N-[(R)-1-(4-fluoro-phenyl)-2-hydroxy-ethyl]-2-methyl-butyramide]",200,

# Now those with a lower Ki [1], led by results:
Ki [1] [nM],Ki [2] [nM],SMILES
3,3,"CC(CCN1CCC(N2CCCC2=O)CC1)(C(=O)N[C@@H](CO)c1ccc(Cl)c(Cl)c1)c1ccc(Cl)c(Cl)c1 (single isomer, unassigned; diastereoisomer 1) [Example 94, 2-(3,4-Dichloro-phenyl)-N-[-1-(3,4-dichloro-phenyl)-2-hydroxy-ethyl]-2-methyl-4-[4-(2-oxo-pyrrolidin-1-yl)-piperidin-1-yl]-butyramide; diastereoisomer 1]"
3,3,"CN(Cc1ccc(C(F)(F)F)c(F)c1)C(=O)C(C)(CCN1CCC(N2CCCC2=O)CC1)c1ccc(Cl)c(Cl)c1 (stereo not shown) [Example 81, 2-(3,4-Dichloro-phenyl)-N-(3-fluoro-4-trifluoromethyl-benzyl)-2,N-dimethyl-4-[4-(2-oxo-pyrrolidin-1-yl)-piperidin-1-yl]-butyramide]"
21.7,,"CN(Cc1cccc(C(F)(F)F)c1)C(=O)C(C)(CCN1CCC(NS(C)(=O)=O)CC1)c1ccc(Cl)c(Cl)c1 (stereo not shown) [Example 28, 2-(3,4-Dichloro-phenyl)-4-(4-methanesulfonyl-amino-piperidin-1-yl)-2,N-dimethyl-N-(3-trifluoromethyl-benzyl)-butyramide]"
0.5,0.5,"CCCN(C(C)=O)C1CCN(CCC(C)(C(=O)N[C@@H](CO)c2ccc(F)cc2)c2ccc(Cl)c(Cl)c2)CC1 (single isomer, unassigned; epimer 1) [Example 162]"
8.5,8.5,"CN(Cc1ccc(C(F)(F)F)c(F)c1)C(=O)C(C)(CCN1CCC(N(C)S(C)(=O)=O)CC1)c1ccc(Cl)c(Cl)c1 (stereo not shown) [Example 45, 2-(3,4-Dichloro-phenyl)-N-(3-fluoro-4-trifluoromethyl-benzyl)-4-[4-(methanesulfonyl-methyl-amino)-piperidin-1-yl]-2,N-dimethyl-butyramide]"
7.2,7.2,"CC(CCN1CCC(N2CCCC2=O)CC1)(C(=O)NC(c1ccc(F)cc1)C(F)(F)F)c1ccc(Cl)c(Cl)c1 (stereo not shown) [Example 96, 2-(3,4-Dichloro-phenyl)-2-methyl-4-[4-(2-oxo-pyrrolidin-1-yl)-piperidin-1-yl]-N-[2,2,2-trifluoro-1-(4-fluoro-phenyl)-ethyl]-butyramide]"
5.5,5.5,"CN(C1CCN(CCC(C)(C(=O)N[C@@H](CO)c2ccc(Cl)c(Cl)c2)c2ccc(Cl)c(Cl)c2)CC1)S(C)(=O)=O (single isomer, unassigned; diastereoisomer 1) [Example 49, 2-(3,4-Dichloro-phenyl)-N-[1-(3,4-dichloro-phenyl)-2-hydroxy-ethyl]-4-[4-(methanesulfonyl-methyl-amino)-piperidin-1-yl]-2-methyl-butyramide; diastereoisomer 1]"
18.8,,"CN(Cc1ccc(C(F)(F)F)c(F)c1)C(=O)C(C)(CCN1CCC(NS(C)(=O)=O)CC1)c1ccc(Cl)c(Cl)c1 (single isomer, unassigned) [Example 124, (R or S)-2-(3,4-Dichloro-phenyl)-N-(3-fluoro-4-trifluoromethyl-benzyl)-4-(4-methanesulfonylamino-piperidin-1-yl)-2,N-dimethyl-butyramide]"
23.4,,"CN(Cc1ccc(F)c(C(F)(F)F)c1)C(=O)C(F)(CCN1CCC(N(C)S(C)(=O)=O)CC1)c1ccc(Cl)c(Cl)c1 (stereo not shown) [Example 55, 2-(3,4-Dichloro-phenyl)-2-fluoro-N-(4-fluoro-3-trifluoromethyl-benzyl)-4-[4-(methanesulfonyl-methyl-amino)-piperidin-1-yl]-N-methyl-butyramide]"
28.7,,"CN(Cc1ccc(C(F)(F)F)cc1)C(=O)C(C)(CCN1CCC(NS(C)(=O)=O)CC1)c1ccc(Cl)c(Cl)c1 (stereo not shown) [Example 25, 2-(3,4-Dichloro-phenyl)-4-(4-methanesulfonyl-amino-piperidin-1-yl)-2,N-dimethyl-N-(4-trifluoromethyl-benzyl)-butyramide]"
1.5,1.5,"CCN(C1CCN(CCC(C)(C(=O)N[C@@H](CO)c2ccc(Cl)c(Cl)c2)c2ccc(Cl)c(Cl)c2)CC1)S(C)(=O)=O (single isomer, unassigned; diastereoisomer 1) [Example 79, 2-(3,4-Dichloro-phenyl)-N-[1-(3,4-dichloro-phenyl)-2-hydroxy-ethyl]-4-[4-(ethyl-methanesulfonyl-amino)-piperidin-1-yl]-2-methyl-butyramide; diastereoisomer 1]"
